Values of other authors as cited in patent US20120196858A1, “METHOD OF PROMOTING APOPTOSIS AND INHIBITING METASTASIS” (Poniard Pharmaceuticals ,Inc., priority 2009, published 2012).

Test system: lung carcinoma xenografts
Settings: previous studies; cited from earlier work

## CN(c1ncccc1CNc1nc(Nc2ccc3c(c2)CC(=O)N3)ncc1C(F)(F)F)S(C)(=O)=O [PF-562,271]
  tumor microvessel density: reduced tumor microvessel density
